Entries after “also recorded” stand apart in the source; their conditions may differ. Read-outs that look alike come from different tables or passages of the source.
Columns and labels:
[1] = molecular target: T1, γ-secretase cleavage of NotchΔE (Homo sapiens, UniProt P49768); assay: NICD generation in NotchΔE transfected HEK293 cells, Western blot; assay type: cell-based; settings: for NICD generation in cultured cells: high doses
T1 construct: endogenous in cells; host or cells: HEK293 stably expressing Swedish mutant human APP695, transiently transfected with NotchΔE
Description: Since many compounds could behave differently in vitro versus in culture cells, cpd E and DAPT were tested in cultured cells (Fig. 2). HEK293 cells stably expressing Swedish mutant APP were transiently transfected with NotchΔE, a truncated Notch construct that is readily cleaved by the γ-secretase to generate NICD for downstream signaling transduction. NotchΔE expressing cells were treated with increasing concentrations of DAPT or cpd E. Cell lysates were subjected to WB for measuring the generation of NICD (Fig. 2A), and conditioned media were collected for Aβ measurement by ELISA (Fig. 2B,C).
Figure 2 Generation of NICD and Aβ from NotchΔE and APP expressing cells. A. Twenty four hrs after the construct carrying NotchΔE was transfected into APP expressing HEK293 cells, cells were treated with DAPT or cpd E for 8 hr and lysed for WB with antibody 1744 to specifically detect the N-terminus of NICD. Bottom panel, the antibody against α-tubulin was applied to normalize the amounts of lysates used for WB. B. Levels of NICD determined by WB were quantified by densitometry (dotted line). Levels of Aβ generated from the γ-secretase cleavage of APP in the presence of DAPT were determined by ELISA. […] C. NICD (dotted line) and Aβ (solid line) production from cpd E-treated cells were compared. […] D. A luciferase reporter construct driven by HES1 promoter was transfected into HEK293 cells followed by treatment with cpd E or DAPT.
The cDNA construct NotchΔE has a c-myc tag and is a truncated Notch molecule that is an immediate substrate for γ-secretase cleavage to generate Notch intracellular domain (NICD). Two chimeric cDNA constructs express […] the juxtamembrane portion of the APP ectodomain (the α-secretase cleavage region) replaced by the corresponding sequence in Notch (APP-α-NOTCH). These cDNA constructs were provided by Dr. Dennis Selkoe. Hes-1 reporter construct (Hes-Luc) was generated by insertion three of Su(H) binding sequence
Human embryonic kidney (HEK) 293 cells stably expressing Swedish mutant human APP695 were transfected with different cDNA constructs and maintained in 200 μg/ml G418 (Invitrogen, Carlsbad, CA). Transfected cells were treated with two γ-secretase inhibitors cpd E or DAPT for 8 hr. Conditioned media were collected for ELISA, and cell lysates were analyzed by Western blot as described. Cells co-transfected with Hes-Luc and NotchΔE were treated with compounds followed by the measurement of luciferase activity (Luciferase Assay System, Promega, Madison, WI).

zebrafish embryos = assay: Zebrafish embryo treatment, tail curvature phenotype; assay type: in vivo; settings: 50 μM; for embryo morphology, tail curvature: 24 hpf to 48 hpf, 28°C; for embryo morphology, tail curvature at 4 dpf: kept for four days
Description: Measurements of in vitro γ-secretase activity and cell-based Aβ/NICD generation have shown different inhibition potencies. To examine the inhibitory effect in vivo, zebrafish embryos were treated with DAPT or cpd E. Because different γ-secretase inhibitors may impact various metabolic pathways in zebrafish embryos, especially during development, the phenotypes of zebrafish embryos treated with high concentrations of DAPT and cpd E were compared. The major phenotype we examined was curved tail caused by defective somitogenesis.
Figure 4 Treatment of zebrafish embryos with DAPT causes curved tails. A. A stock of DAPT or cpd E in DMSO was diluted in embryo medium, and increasing concentrations of DAPT or cpd E were applied to de-chorionated zebrafish embryos incubated at 28°C from 24 hpf to 48 hpf. Control embryos were mock-treated with embryo medium containing the same concentration of DMSO. […] B. DAPT- or cpd E-treated embryos were kept until 4 dpf, and images were acquired at 40 × magnification.
Zebrafish embryos were raised and staged according to Kimmel, et al.. Compounds were dissolved in egg water at various final concentrations, and 0.5% DMSO was used as a negative control. Prior to the treatment at 24 hour post fertilization, embryos were de-chorionated manually. Embryos were placed in a 24-well plate (5–6 embryos/well) and treated with the compound containing egg water. Embryos were incubated at 28°C, and photographic images were taken at 2 days and 4 days post fertilization (dpf).
Compound-treated embryos were observed under an OLYMPUS SZX12 microscope. For examination, embryos were removed from the compound containing medium and placed into 0.4% tricane (3-amino benzoic acidethylester, Sigma, St. Louis, MO) solution. Upon anesthetizing, embryos were placed in 3% methylcellulose for positioning and images were recorded with OLYMPUS Q-COLOR3 camera. Images were taken at the 40× magnification for embryos at 2 and 4 dpf.

## C[C@H](NC(=O)Cc1cc(F)cc(F)c1)C(=O)N[C@H]1N=C(c2ccccc2)c2ccccc2N(C)C1=O [cpd E, (S,S)-2-[2-(3,5-Difluorophenyl)-acetylamino]-N-(1-methyl-2-oxo-5-phenyl-2,3-dihydro-1H-benzo [e] [1,4]diazepin-3-yl)-propionamide]
[1]; EC50 for the inhibition of NICD generation in cultured cells, Fig. 2
  EC50: < 100 nM
[1]; EC50 to reduce NICD generation in cultured cells, Fig. 2B and 2C
  EC50: 10 nM
[1]
  NICD generation in cultured cells: could not completely eliminate NICD generation
Zebrafish embryos
  embryo morphology, tail curvature: lack of dramatic phenotypic alteration
  embryo morphology, tail curvature at 4 dpf: minor effect on embryo morphology
Zebrafish embryos; listed as Cpd E
  embryo morphology, tail curvature: did not show any curvature

## C[C@H](NC(=O)Cc1cc(F)cc(F)c1)C(=O)N[C@H](C(=O)OC(C)(C)C)c1ccccc1 [DAPT, N-[N-(3,5-Difluorophenacetyl-L-alanyl)]-S-phenylglycine t-Butyl Ester]
[1]; 1 μM or higher
  Notch cleavage reduced to, cell culture based assay: about 50%
[1]; Fig. 2B and 2C, read-out: EC50 to reduce NICD generation in cultured cells
  EC50: ~1000 nM
[1]
  NICD generation in cultured cells: could not completely eliminate NICD generation
Zebrafish embryos
  embryo morphology, tail curvature: much shorter and curved tail; also recorded: caused curved trunk and tails; also recorded: curvature of zebrafish tail was found
  embryo morphology, tail curvature at 4 dpf: continued to show the curvature of the tails
